Patent US20120088827A1 (Profectus Biosciences, Inc., priority 2009, published 2012)

How the values were obtained:
IL-6 = test: Inhibition of IL-6 release in LPS-stimulated RAW 264.7 cells; format: cell-based; details: Mus musculus, RAW264.7; pretreated 2 hours, 1 μg/mL LPS 20-24 hours
Protocol: RAW 264.7 cells were seeded at 4×10^4 cells per well in complete growth medium in 96 well white TC plates with clear bottoms one day prior to the assay. The next day the cells were washed once and 100 μL fresh growth media was added. Cells were pretreated with 0.5 μL from a 6 point 200× dilution series of the test compounds in DMSO for 2 hours. Following pretreatment with the drugs, the inflammatory response was induced by adding 5 μL of a 20 μg/mL solution of LPS (Sigma). The cells were incubated in the presence of the drugs and 1 μg/mL LPS for another 20-24 hours. Typically after treatment the total DMSO was […] of the culture volume and the final concentrations of the compounds were approximately: 40, 20, 10, 1, 0.2 and 0 μM depending on the MW of each compound. Modified dilution series were prepared as needed to get adequate dose response curves without changing the % DMSO. Samples were run in duplicate or triplicate and included DMSO treated control wells with and without LPS stimulation. Drugs with a known activity such as Parthenolide or DHMEQ were run as experimental controls. After 20-24 hours LPS activation, the media supernatant was collected from the cells and replaced with fresh media. The supernatant samples were cleared by centrifugation at 1,000×g for 5 minutes, transferred to fresh storage plates, and stored frozen at −30° C.
After determining the appropriate supernatant dilutions experimentally, mIL-6 levels in the supernatants were quantified using Quantikine™ mouse IL-6 Immunoassay (R&D Systems) according to the manufacturer's protocol. Approximately 50 μL of the supernatants diluted in Calibrator Diluent were added to 50 μL of Assay Diluent in microplate wells pre-coated with an anti-mouse IL-6 capture antibody. Controls included a calibrated positive IL-6 control sample, non-specific binding (NSB) wells containing Calibrator Diluent but no IL-6, and a recombinant mouse IL-6 standard dilution series (10-1000 pg/mL). The plates were incubated at room temperature for 2 hours with shaking and then washed 5 times with 400 μL 1× Wash Buffer. Approximately 100 μL of an HRP-conjugated anti-mouse IL-6 antibody was added to each well to detect IL-6 captured on the plate. The plates were incubated at room temperature for 2 hours and then washed 5 times with 400 μl 1× Wash Buffer. Equal volumes of Color Reagents A and B were mixed and 100 μL of this HRP Substrate Solution was added to each well on the plate. The blue color was allowed to develop for 30 minutes and then the reaction was stopped using 100 μL of Stop Solution yielding a yellow color. Absorbance at 450 nm with a reference wavelength subtracted at 595 nm was recorded using a Becton-Dickinson DTX 880 Multimode Detector.
The concentration of mIL-6 in the unknown samples was determined from a curve-fit of the mIL-6 standard absorbance data and multiplying by the dilution factor. The maximum activity achieved in the absence of the inhibitor (DMSO+LPS treated wells) was arbitrarily given a value of 100%; likewise the minimum activity in the absence of the stimulant (no LPS) was assigned a value of 0% Inhibition of the amount of mIL-6 cytokine released in the drug treated wells was calculated relative to the maximum activation in the DMSO+LPS treated control wells (i.e., % inhibition=100−(drug+LPS treated)/(DMSO+LPS treated)). Dose response curves were used to determine the effective concentration to inhibit 50% of the mIL-6 cytokine released (IC50) by means of a SigmaPlot macro which fits a sigmoidal dose-response curve to the (log 10) μM concentration versus % inhibition. […] This technique yields an objective value for the IC50 provided that 50% inhibition was approached at the concentrations tested.

NF-κB p65 = target: T1, NF-κB p65 (Homo sapiens, UniProt Q04206); test: TransAM NF-κB Family DNA Binding ELISA, p65; details: binding to NF-κB consensus oligonucleotide; read-out: p65 binding IC50
T1 construct: purchased Active Motif
Protocol: The binding activity of NF-κB heterodimer or homodimer subunits from activated nuclear extracts or purified recombinant NF-κB proteins exposed to the drug compounds was evaluated using the TransAM NF-κB Family binding ELISA (Active Motif). Approximately 3-5 μg of nuclear extracts from TNFα activated Hela or Raji cells (Active Motif) or 20 ng of purified recombinant proteins (p65 and p50 from Active Motif, p52 from Santa Cruz) were incubated for 1 hour at room temperature with 20 μL drug compounds diluted in Complete Lysis buffer without DTT. Treated samples were then transferred to 30 μL Complete Binding Buffer (with DTT) in microplate wells pre-coated with the NF-κB consensus oligonucleotide. […] The plate was incubated for 1 hour at room temperature with gentle shaking and then washed 3 times with 200 μL 1× Wash Buffer. NF-κB p65, p50, p52, RelB, or c-Rel subunits bound to the plate were detected with 100 μL of the primary antibody (diluted 1:1000 in 1× Antibody Buffer) specific for that subunit. The plate was incubated for 1 hour at room temperature and then washed 3 times with 200 μL 1× Wash Buffer. Next, 100 μL of a HRP conjugated goat anti-rabbit antibody (diluted 1:1,000 in 1× Antibody Buffer) was added to each well. The plate was incubated for 1 hour at room temperature and then washed 4 times with 200 μL 1× Wash Buffer. 100 μL of room temperature Developing Solution was added to each well. The reaction was allowed to develop for 2-10 minutes until a medium dark blue color developed (depending on the subunit activity in the lot of extract or lot of recombinant protein used) and then the reaction was stopped with 100 μL Stop Solution yielding a yellow color. Absorbance was recorded using a Becton-Dickinson DTX 880 Multimode Detector at 450 nm with a reference wavelength subtracted at 620 nm.

[1] = system: NF-κB driven transcription (pTRH1-NF-κB-dscGFP reporter, 293 cells); test: NF-kB/293/GFP reporter cell assay; format: cell-based; details: Homo sapiens, HEK293; compound 2 hours, then 20 ng/ml TNF-α for 18 hours; fluorescence
Protocol: (§1) Two reporter cell assays were used to determine the ability of the compounds of Examples 1-12 to inhibit NF-κB driven transcription. The first assay was a 293-cell based assay with a stably integrated pNF-κB-luc reporter plasmid containing 3 NF-κB promoter elements. The second assay was a 293-cell based assay with a stably integrated pTRH1-NF-κB-dscGFP reporter containing 4 NF-κB promoter elements. Cells were treated with 0, 0.2, 1, 10, 20 and 40 μM of the compounds of Example 1-12 for 2 hours then were induced with 20 ng/ml TNF-α for 18 hours. Following the induction, luminescence or fluorescence was quantified using a Beckman-Coulter 2300 plate reader. […] As a control, 0.5% DMSO treated and untreated cells were compared to verify that the compounds of Examples 1-12 had no effect on the expression of luciferase or in the readout of the assay. There was a slight decrease in the output from the assay in the DMSO treated population although it was not statistically significant. As a result of the controls, the decrease in activity in the drug treated samples was compared to the DMSO control sample.

[2] = system: NF-κB driven transcription (pNF-κB-luc reporter, 293 cells); test: 293/NF-kB-luc reporter cell assay; format: cell-based; details: Homo sapiens; compound 2 hours, then 20 ng/ml TNF-α for 18 hours; luminescence
Protocol: as §1

T1 sequence (Q04206 whole entry): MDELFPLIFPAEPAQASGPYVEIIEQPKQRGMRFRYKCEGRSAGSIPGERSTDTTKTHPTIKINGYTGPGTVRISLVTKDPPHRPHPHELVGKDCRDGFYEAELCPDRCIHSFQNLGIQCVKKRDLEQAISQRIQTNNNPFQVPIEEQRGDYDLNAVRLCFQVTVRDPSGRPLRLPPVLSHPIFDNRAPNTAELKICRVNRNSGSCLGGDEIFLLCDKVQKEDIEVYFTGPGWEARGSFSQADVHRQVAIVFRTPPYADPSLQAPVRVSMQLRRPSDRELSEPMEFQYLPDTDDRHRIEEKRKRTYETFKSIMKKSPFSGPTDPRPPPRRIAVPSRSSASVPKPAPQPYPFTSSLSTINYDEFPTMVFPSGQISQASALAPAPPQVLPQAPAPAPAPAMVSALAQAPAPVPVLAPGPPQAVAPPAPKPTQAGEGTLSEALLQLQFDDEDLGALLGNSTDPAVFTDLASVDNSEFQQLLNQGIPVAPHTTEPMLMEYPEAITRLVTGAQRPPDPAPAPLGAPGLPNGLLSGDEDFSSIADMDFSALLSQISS

| Structure (SMILES) | EC50 (IL-6) [µM] | IC50 (NF-κB p65) [µM] | EC50 [1] [µM] | EC50 [2] [µM] |
| --- | --- | --- | --- | --- |
| CC(C)OC(=O)OC1C(NC(=O)c2ccccc2O)=CC(=O)C2OC21 (racemic) [Example 8] | 1.5 | 336 | 14 | 10 |
| O=C(CC1CCCCC1)Oc1ccccc1C(=O)NC1=CC(=O)C2OC2C1O (racemic) [Example 3, (±)-2-(2-hydroxy-5-oxo-7-oxabicyclo[4.1.0]hept-3-en-3-ylcarbamoyl)phenyl 2-cyclohexylacetate] | 0.72 | 93 | 10 | 14 |
| CC(C)OC(=O)Oc1ccccc1C(=O)NC1=CC(=O)C2OC2C1OC(=O)OC(C)C (racemic) [Example 2, (±)-3-(2-isopropoxycarbonyloxy-benzoylamino)-5-oxo-7-oxa-bicyclo[4.1.0]hept-3-en-2-yl ester isopropyl ester] | 1.3 | > 376 |  | 11 |
| CCCCC(CC)C(=O)Oc1ccccc1C(=O)NC1=CC(=O)C2OC2C1O (racemic) [Example 5, (±)-2-(2-hydroxy-5-oxo-7-oxabicyclo[4.1.0]hept-3-en-3-ylcarbamoyl)phenyl 2-ethylhexanoate] | 0.44 | > 430 | 6.7 | 15 |

More lines, main results first:

| EC50 (IL-6) [µM] | IC50 (NF-κB p65) [µM] | Structure (SMILES) | EC50 [1] [µM] | EC50 [2] [µM] |
| --- | --- | --- | --- | --- |
| 0.45 | 149 | CCCC(C)C(=O)Oc1ccccc1C(=O)NC1=CC(=O)C2OC2C1O (racemic) [Example 4, (±)-2-(2-hydroxy-5-oxo-7-oxabicyclo[4.1.0]hept-3-en-3-ylcarbamoyl)phenyl 2-methylpentanoate] | 17 | 10 |
| 0.35 | 67 | CC(C)(C)CC(=O)Oc1ccccc1C(=O)NC1=CC(=O)C2OC2C1O (racemic) [Example 6, (±)-2-(2-hydroxy-5-oxo-7-oxabicyclo[4.1.0]hept-3-en-3-ylcarbamoyl)phenyl 3,3-dimethylbutanoate] | 10 | 8 |
| 0.5 | 214 | CC(C)CC(=O)Oc1ccccc1C(=O)NC1=CC(=O)C2OC2C1O (racemic) [Example 1, (±)-2-(2-hydroxy-5-oxo-7-oxabicyclo[4.1.0]hept-3-en-3-ylcarbamoyl)phenyl 3-methylbutanoate] | 11 | 18 |
| 1.7 | > 480 | CC(C)OC(=O)Oc1ccccc1C(=O)NC1=CC(=O)C2OC2C1O (racemic) [Example 7, (±)-2-(2-hydroxy-5-oxo-7-oxabicyclo[4.1.0]hept-3-en-3-ylcarbamoyl)phenyl isopropyl carbonate] | 8.4 | 17 |
